Measurements reported in patent publication US20120238549A1, “Nuclear Hormone Receptor Modulators” (ABBOTT LABORATORIES, priority 2011, published 2012).

Target: T1, Glucocorticoid Receptor (GR) (Homo sapiens, UniProt P04150)
T1 construct: purchased Invitrogen P2893
T1 sequence (P04150 1-777): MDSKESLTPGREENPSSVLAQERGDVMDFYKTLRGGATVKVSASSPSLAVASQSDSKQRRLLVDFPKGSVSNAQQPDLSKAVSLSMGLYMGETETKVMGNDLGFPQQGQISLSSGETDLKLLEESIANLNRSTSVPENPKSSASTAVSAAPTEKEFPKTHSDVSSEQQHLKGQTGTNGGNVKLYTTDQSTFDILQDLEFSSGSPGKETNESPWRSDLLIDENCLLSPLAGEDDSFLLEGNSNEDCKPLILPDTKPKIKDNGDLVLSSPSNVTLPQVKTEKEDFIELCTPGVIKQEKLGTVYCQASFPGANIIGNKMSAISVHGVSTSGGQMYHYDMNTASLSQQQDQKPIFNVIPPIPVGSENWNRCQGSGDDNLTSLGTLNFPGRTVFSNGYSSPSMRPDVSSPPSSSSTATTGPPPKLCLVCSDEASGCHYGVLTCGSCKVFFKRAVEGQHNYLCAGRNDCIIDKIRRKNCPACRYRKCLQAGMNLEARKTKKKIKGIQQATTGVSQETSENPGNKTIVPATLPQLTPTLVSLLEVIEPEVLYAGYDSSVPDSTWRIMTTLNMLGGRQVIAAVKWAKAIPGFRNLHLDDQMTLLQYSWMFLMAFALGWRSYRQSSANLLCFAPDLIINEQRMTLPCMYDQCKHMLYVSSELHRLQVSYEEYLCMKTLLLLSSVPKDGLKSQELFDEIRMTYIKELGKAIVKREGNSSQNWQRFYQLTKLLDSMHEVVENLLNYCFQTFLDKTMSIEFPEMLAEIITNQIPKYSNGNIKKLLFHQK
Assay: GR Florescence Polarization Assay (PolarScreen Glucocorticoid Receptor Competitor Assay, Red)
Conditions: Fluorescense polarization binding ranges; competition with fluorescent glucocorticoid, incubated overnight at 4° C.
Procedure: GR Florescence Polarization Assay Florescence polarization assays were carried out using the PolarScreen™ Glucocorticoid Receptor Competitor Assay, Red from Invitrogen (P2893). The assay buffer was prepared according to the manufacturer's protocol and used to dilute the fluorescent glucocorticoid and GR. Compounds were prepared and serial diluted 1:4 in DMSO. Compound, fluorescent glucocorticoid and GR were added in a final volume of 20 μL and incubated overnight at 4° C. Fluorescent polarization was measured on the Perkinelmer Envision®.

Row | SMILES | IC50 [nM]
1 | Cc1ncccc1NC(=O)c1ccc2c(c1)CCCC1CC(O)(COC(C)C(F)(F)F)CCC21Cc1ccccc1 (mixture of isomers) [Example 100] | < 100
2 | Cc1ncccc1NC(=O)c1ccc2c(c1)CCC[C@@H]1C[C@@](O)(C(F)(F)F)CC[C@@]21Cc1ccccc1 (racemic) [Example 3, (7aR,9R,11aS)-11a-Benzyl-9-hydroxy-9-trifluoromethyl-6,7,7a,8,9,10,11,11a-octahydro-5H-dibenzo[a,c]cycloheptene-3-carboxylic acid (2-methyl-pyridin-3-yl)-amide; compound with (7aS,9S,11aR)-11a-benzyl-9-hydroxy-9-trifluoromethyl-6,7,7a,8,9,10,11,11a-octahydro-5H-dibenzo[a,c]cycloheptene-3-carboxylic acid (2-methyl-pyridin-3-yl)-amide] | < 100
3 | Cc1ncccc1NC(=O)c1ccc2c(c1)CCC[C@@H]1CC(=O)CC[C@@]21Cc1ccccc1 (racemic) [Example 8, (7aR,11aS)-11a-Benzyl-9-oxo-6,7,7a,8,9,10,11,11a-octahydro-5H-dibenzo[a,c]cycloheptene-3-carboxylic acid (2-methyl-pyridin-3-yl)-amide; compound with (7aS,11aR)-11a-benzyl-9-oxo-6,7,7a,8,9,10,11,11a-octahydro-5H-dibenzo[a,c]cycloheptene-3-carboxylic acid (2-methyl-pyridin-3-yl)-amide] | < 100
4 | Cc1ncccc1NC(=O)c1ccc2c(c1)CCC[C@H]1CC(=O)CC[C@@]21Cc1ccccc1 (racemic) [Example 11, (7aS,11aS)-11a-Benzyl-9-oxo-6,7,7a,8,9,10,11,11a-octahydro-5H-dibenzo[a,c]cycloheptene-3-carboxylic acid (2-methyl-pyridin-3-yl)-amide; compound with (7aR,11aR)-11a-benzyl-9-oxo-6,7,7a,8,9,10,11,11a-octahydro-5H-dibenzo[a,c]cycloheptene-3-carboxylic acid (2-methyl-pyridin-3-yl)-amide] | < 100
5 | Cc1ncccc1NC(=O)c1ccc2c(c1)CCC[C@H]1C[C@@H](O)CC[C@@]21Cc1ccccc1 (racemic) [Example 16, (7aS,9S,11aS)-11a-Benzyl-9-hydroxy-6,7,7a,8,9,10,11,11a-octahydro-5H-dibenzo[a,c]cycloheptene-3-carboxylic acid (2-methyl-pyridin-3-yl)-amide; compound with (7aR,9R,11aR)-11a-benzyl-9-hydroxy-6,7,7a,8,9,10,11,11a-octahydro-5H-dibenzo[a,c]cycloheptene-3-carboxylic acid (2-methyl-pyridin-3-yl)-amide] | 100 to 1000
6 | Cc1ncccc1NC(=O)c1ccc2c(c1)CCC[C@H]1C[C@H](O)CC[C@@]21Cc1ccccc1 (racemic) [Example 17, (7aS,9R,11aS)-11a-Benzyl-9-hydroxy-6,7,7a,8,9,10,11,11a-octahydro-5H-dibenzo[a,c]cycloheptene-3-carboxylic acid (2-methyl-pyridin-3-yl)-amide; compound with (7aR,9S,11aR)-11a-benzyl-9-hydroxy-6,7,7a,8,9,10,11,11a-octahydro-5H-dibenzo[a,c]cycloheptene-3-carboxylic acid (2-methyl-pyridin-3-yl)-amide] | < 100
7 | COC[C@@]1(O)CC[C@@]2(Cc3ccccc3)c3ccc(C(=O)Nc4cccnc4C)cc3CCC[C@H]2C1 (racemic) [Example 18, (7aS,9R,11aS)-11a-Benzyl-9-hydroxy-9-methoxymethyl-6,7,7a,8,9,10,11,11a-octahydro-5H-dibenzo[a,c]cycloheptene-3-carboxylic acid (2-methyl-pyridin-3-yl)-amide; compound with (7aR,9S,11aR)-11a-benzyl-9-hydroxy-9-methoxymethyl-6,7,7a,8,9,10,11,11a-octahydro-5H-dibenzo[a,c]cycloheptene-3-carboxylic acid (2-methyl-pyridin-3-yl)-amide] | < 100
8 | Cc1ncccc1NC(=O)c1ccc2c(c1)CCCC1=C[C@](C)(O)CC[C@]12Cc1ccccc1 (racemic) [Example 19, (9R,11aS)-11a-Benzyl-9-hydroxy-9-methyl-6,7,9,10,11,11a-hexahydro-5H-dibenzo[a,c]cycloheptene-3-carboxylic acid (2-methyl-pyridin-3-yl)-amide; compound with (9S,11aR)-11a-benzyl-9-hydroxy-9-methyl-6,7,9,10,11,11a-hexahydro-5H-dibenzo[a,c]cycloheptene-3-carboxylic acid (2-methyl-pyridin-3-yl)-amide] | < 100
9 | CC[C@@]1(O)CC[C@@]2(Cc3ccccc3)c3ccc(C(=O)Nc4cccnc4C)cc3C(=O)CC[C@H]2C1 (racemic) [Example 23, (7aS,9R,11aS)-11a-Benzyl-9-ethyl-9-hydroxy-5-oxo-6,7,7a,8,9,10,11,11a-octahydro-5H-dibenzo[a,c]cycloheptene-3-carboxylic acid (2-methyl-pyridin-3-yl)-amide; compound with (7aR,9S,11aR)-11a-benzyl-9-ethyl-9-hydroxy-5-oxo-6,7,7a,8,9,10,11,11a-octahydro-5H-dibenzo[a,c]cycloheptene-3-carboxylic acid (2-methyl-pyridin-3-yl)-amide] | < 100
10 | CC#C[C@]1(O)CC[C@@]2(Cc3ccccc3)c3ccc(O)cc3CCC[C@H]2C1 (racemic) [Example 28, (3S,4aS,11bS)-11b-Benzyl-3-prop-1-ynyl-2,3,4,4a,5,6,7,11b-octahydro-1H-dibenzo[a,c]cycloheptene-3,9-diol; compound with (3R,4aR,11bR)-11b-benzyl-3-prop-1-ynyl-2,3,4,4a,5,6,7,11b-octahydro-1H-dibenzo[a,c]cycloheptene-3,9-diol] | 100 to 1000
11 | CC#C[C@]1(O)CC[C@@]2(Cc3ccccc3)c3ccc(C(=O)Nc4cccnc4C)cc3CCC[C@H]2C1 (racemic) [Example 29, (7aS,9S,11aS)-11a-Benzyl-9-hydroxy-9-prop-1-ynyl-6,7,7a,8,9,10,11,11a-octahydro-5H-dibenzo[a,c]cycloheptene-3-carboxylic acid (2-methyl-pyridin-3-yl)-amide; compound with (7aR,9R,11aR)-11a-benzyl-9-hydroxy-9-prop-1-ynyl-6,7,7a,8,9,10,11,11a-octahydro-5H-dibenzo[a,c]cycloheptene-3-carboxylic acid (2-methyl-pyridin-3-yl)-amide] | 100 to 1000
12 | Cc1ncccc1NC(=O)c1ccc2c(c1)CCC[C@H]1C[C@](C)(O)CC[C@@]21Cc1ccccc1 (racemic) [Example 30, (7aS,9R,11aS)-11a-Benzyl-9-hydroxy-9-methyl-6,7,7a,8,9,10,11,11a-octahydro-5H-dibenzo[a,c]cycloheptene-3-carboxylic acid (2-methyl-pyridin-3-yl)-amide; compound with (7aR,9S,11aR)-11a-benzyl-9-hydroxy-9-methyl-6,7,7a,8,9,10,11,11a-octahydro-5H-dibenzo[a,c]cycloheptene-3-carboxylic acid (2-methyl-pyridin-3-yl)-amide] | < 100
13 | CCC[C@@]1(O)CC[C@@]2(Cc3ccccc3)c3ccc(C(=O)Nc4cccnc4C)cc3CCC[C@H]2C1 (racemic) [Example 31, (7aS,9R,11aS)-11a-Benzyl-9-hydroxy-9-propyl-6,7,7a,8,9,10,11,11a-octahydro-5H-dibenzo[a,c]cycloheptene-3-carboxylic acid (2-methyl-pyridin-3-yl)-amide; compound with (7aR,9S,11aR)-11a-benzyl-9-hydroxy-9-propyl-6,7,7a,8,9,10,11,11a-octahydro-5H-dibenzo[a,c]cycloheptene-3-carboxylic acid (2-methyl-pyridin-3-yl)-amide] | < 100
14 | C#C[C@]1(O)CC[C@@]2(Cc3ccccc3)c3ccc(C(=O)Nc4cccnc4C)cc3CCC[C@H]2C1 (racemic) [Example 32, (7aS,9S,11aS)-11a-Benzyl-9-ethynyl-9-hydroxy-6,7,7a,8,9,10,11,11a-octahydro-5H-dibenzo[a,c]cycloheptene-3-carboxylic acid (2-methyl-pyridin-3-yl)-amide; compound with (7aR,9R,11aR)-11a-benzyl-9-ethynyl-9-hydroxy-6,7,7a,8,9,10,11,11a-octahydro-5H-dibenzo[a,c]cyclo heptene-3-carboxylic acid (2-methyl-pyridin-3-yl)-amide] | < 100
